Paper PMC3419191, “Identification of Novel Piperazinylquinoxaline Derivatives as Potent Phosphoinositide 3-Kinase (PI3K) Inhibitors” (PLoS ONE, 2012)

How the values were obtained:
PC3 = assay: MTT assay, antiproliferative activity against PC3 cells; type: cell-based; conditions: Homo sapiens, PC-3, 72 h, mean of at least two determinations
Excerpt: (§1) All synthesized target compounds were firstly tested for their antiproliferative activity against five human cancer cell lines, PC3, A549, HCT116, HL60, and KB, using MTT assay.
(§2) Human prostate cancer PC3 cells, lung adenocarcinoma epithelial A549 cells, colon cancer HCT116 cells, promyelocytic leukemia HL60 cells and nasopharyngeal carcinoma KB cells were obtained from the cell bank of the Institute of Biochemistry and Cell Biology, Chinese Academy of Sciences (Shanghai, China). The inhibitory activity of target compounds against tested cancer cell lines was measured using the MTT assay. PC3, A549, HCT116, HL60, and KB cancer cell lines were cultured in RPMI-1640 medium (Invitrogen, Carlsbad, CA, USA) with heat-inactivated 10% fetal bovine serum, penicillin (100 units/mL) and streptomycin (100 µg/mL) and incubated in an atmosphere with 20% oxygen and 5% carbon dioxide at 37°C. All tested compounds were dissolved in DMSO at concentrations of 10.0 mg/mL and diluted to appropriate concentrations. Cells were plated in 96-well plates for 24 h and subsequently treated with different concentrations of all tested compounds for 72 h. Viable cells were determined using 3-(4,5-dimethylthiazol-2-yl)-2,5-diphenyltetrazolium bromide assay kit (MTT, Sigma) according to operation instructions provided by the manufacturer. The concentration of drug causing 50% inhibition in absorbance compared with control cells (IC50) was calculated using the software of dose-effect analysis with microcomputers.

A549 = assay: MTT assay, antiproliferative activity against A549 cells; type: cell-based; conditions: Homo sapiens, 72 h, mean of at least two determinations
Excerpt: as §1, §2

HCT116 = assay: MTT assay, antiproliferative activity against HCT116 cells; type: cell-based; conditions: Homo sapiens, HCT-116, 72 h, mean of at least two determinations
Excerpt: as §1, §2

HL60 = assay: MTT assay, antiproliferative activity against HL60 cells; type: cell-based; conditions: Homo sapiens, HL-60, 72 h, mean of at least two determinations
Excerpt: as §1, §2

KB = assay: MTT assay, antiproliferative activity against KB cells; type: cell-based; conditions: Homo sapiens, 72 h, mean of at least two determinations
Excerpt: as §1, §2

recombinant human PI3Kα = biological target: T1, recombinant human PI3Kα (Homo sapiens, UniProt P42336); assay: Competitive fluorescence polarization (FP) assay, inhibition of PI3Kα; type: biochemical; conditions: for IC50: FP assay, 50 µM ATP, mean of at least two determinations; for Binding efficiency index (BEI): BEI = pIC50 (M)/MW (kDa), PI3Kα
T1 construct: purchased Echelon Biosciences (Salt Lake City, UT, USA) E-2000
Protocol: Selected compounds were then tested for their enzymatic inhibitory activity against PI3Kα using a competitive fluorescence polarization (FP) assay to determine the molecular target of synthesized compounds [21].
The PI3Kα inhibitory test was determined using a competitive fluorescence polarization kinase activity assay. PI3K fluorescence polarization assay kit (catalog No. K-1100) and recombinant human PI3Kα (catalog No. E-2000) were purchased from Echelon Biosciences (Salt Lake City, UT, USA). PI3K reactions were performed in 5 mM HEPES, Ph 7, 2.5 mM MgCl2, 10 mM DTT and 50 µM ATP, using diC8-phosphatidylinositol-4, 5-bisphosphate (PIP2) as the substrate, and the final reaction volumes were 10 µL. For evaluation of the PI3Kα inhibitory activity of target compounds, 50 ng enzyme and 10 µM substate were used per 10 µL reaction volume with the concentrations of inhibitors ranging from 3.2 nM to 10 µM. After incubating for 3 h at room temperature, reactions were quenched by adding chelators. A mixture of phosphoinositide binding protein was added and mixed, followed by the addition of a fluorophore-labeled phosphoinositide tracer. Samples were then mixed in 384-well black Corning nonbinding plates (Corning, NY, USA) and incubated in a dark environment for 1 h to equilibrate. Finally, polarization values were measure using red fluorophores with appropriate filters to determine the extent of enzyme activity in the reaction.

T1 sequence (P42336 whole entry): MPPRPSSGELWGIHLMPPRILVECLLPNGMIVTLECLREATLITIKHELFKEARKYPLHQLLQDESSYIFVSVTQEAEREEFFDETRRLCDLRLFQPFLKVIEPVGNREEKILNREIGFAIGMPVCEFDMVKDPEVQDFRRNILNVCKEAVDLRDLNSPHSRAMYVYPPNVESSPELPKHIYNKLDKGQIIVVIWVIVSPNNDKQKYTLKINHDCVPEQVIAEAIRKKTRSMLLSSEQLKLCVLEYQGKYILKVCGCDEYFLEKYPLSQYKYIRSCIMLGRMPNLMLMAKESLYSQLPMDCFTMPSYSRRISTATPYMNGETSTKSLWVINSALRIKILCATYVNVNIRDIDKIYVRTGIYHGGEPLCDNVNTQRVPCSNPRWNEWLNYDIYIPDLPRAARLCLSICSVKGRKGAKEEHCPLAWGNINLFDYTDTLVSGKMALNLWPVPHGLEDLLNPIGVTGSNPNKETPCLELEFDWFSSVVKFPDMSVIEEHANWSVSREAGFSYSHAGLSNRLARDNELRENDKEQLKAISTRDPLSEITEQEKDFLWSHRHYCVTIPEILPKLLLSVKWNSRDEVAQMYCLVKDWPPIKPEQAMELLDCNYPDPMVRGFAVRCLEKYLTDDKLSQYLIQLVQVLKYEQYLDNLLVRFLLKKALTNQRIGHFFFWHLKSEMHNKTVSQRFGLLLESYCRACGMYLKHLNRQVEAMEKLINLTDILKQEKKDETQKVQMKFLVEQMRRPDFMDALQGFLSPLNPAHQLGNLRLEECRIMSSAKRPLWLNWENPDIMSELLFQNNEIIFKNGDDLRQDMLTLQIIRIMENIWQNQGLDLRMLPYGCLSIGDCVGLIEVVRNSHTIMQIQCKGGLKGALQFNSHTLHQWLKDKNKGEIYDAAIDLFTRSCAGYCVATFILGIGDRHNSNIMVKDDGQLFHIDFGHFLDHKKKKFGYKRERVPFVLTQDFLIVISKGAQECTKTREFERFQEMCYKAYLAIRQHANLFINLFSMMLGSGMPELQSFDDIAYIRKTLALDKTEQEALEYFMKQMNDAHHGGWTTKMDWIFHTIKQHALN
T1 sequence (P27986 whole entry partner): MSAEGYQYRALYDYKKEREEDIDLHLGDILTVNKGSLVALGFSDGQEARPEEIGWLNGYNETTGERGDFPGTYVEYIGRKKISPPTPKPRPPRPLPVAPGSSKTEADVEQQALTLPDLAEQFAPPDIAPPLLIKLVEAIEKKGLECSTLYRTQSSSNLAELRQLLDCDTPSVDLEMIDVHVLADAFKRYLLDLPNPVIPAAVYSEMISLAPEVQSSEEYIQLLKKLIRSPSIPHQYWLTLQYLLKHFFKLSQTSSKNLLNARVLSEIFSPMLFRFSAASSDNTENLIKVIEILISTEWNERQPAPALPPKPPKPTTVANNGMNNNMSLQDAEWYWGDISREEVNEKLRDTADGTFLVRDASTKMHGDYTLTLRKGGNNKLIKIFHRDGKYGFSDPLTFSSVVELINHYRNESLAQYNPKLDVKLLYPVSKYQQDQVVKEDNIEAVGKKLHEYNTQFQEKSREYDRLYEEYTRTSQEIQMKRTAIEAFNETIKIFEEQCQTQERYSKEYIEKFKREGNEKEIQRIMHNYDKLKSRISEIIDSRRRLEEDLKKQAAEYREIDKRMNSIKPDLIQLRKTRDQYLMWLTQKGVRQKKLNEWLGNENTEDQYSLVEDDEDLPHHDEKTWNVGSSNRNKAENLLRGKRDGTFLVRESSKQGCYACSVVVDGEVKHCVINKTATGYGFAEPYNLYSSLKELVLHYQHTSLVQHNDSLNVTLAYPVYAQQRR

`Cc1ccc(S(=O)(=O)c2nc3ccccc3nc2N2CCN(C)CC2)cc1` [Compound 15, 2-(4-Methylpiperazin-1-yl)-3-(4-methylphenylsulfonyl)quinoxaline] showed an IC50 (PC3) of 840 nM, an IC50 (A549) of 2400 nM and an IC50 (HCT116) of 1680 nM. For the same compound, the IC50 (HL60) was 690 nM, the IC50 (KB) was 470 nM and the IC50 (recombinant human PI3Kα) was > 10000 nM. It also gave a melting point of 127 to 130 °C.

Work on `NC(=O)C1CCN(c2nc3ccccc3nc2S(=O)(=O)c2ccccc2)CC1` [Compound 4, 2-(4-Carbamoylpiperidin-1-yl)-3-(phenylsulfonyl)Fquinoxaline] yielded an IC50 (PC3) of 1200 nM, an IC50 (A549) of 26600 nM and an IC50 (HCT116) of 1570 nM. The IC50 (HL60) was 220 nM, the IC50 (KB) was 13700 nM and the IC50 (recombinant human PI3Kα) was > 10000 nM. For the same compound, the melting point was 170 to 174 °C.

In the case of `O=S(=O)(c1ccc(Br)cc1)c1nc2ccccc2nc1N1CCNCC1` [Compound 22, 2-(Piperazin-1-yl)-3-(4-bromophenylsulfonyl)quinoxaline], the IC50 (PC3) is reported as 360 nM, the IC50 (A549) is reported as 750 nM and the IC50 (HCT116) is reported as 190 nM. The IC50 (HL60) was 100 nM, the IC50 (KB) was 9890 nM and the “Binding efficiency index (BEI)” value (recombinant human PI3Kα) was 17.0. It also gave an IC50 (recombinant human PI3Kα) of 40 nM and a melting point of 92 to 96 °C.

`Cc1ccc(S(=O)(=O)N2CCN(c3nc4ccccc4nc3S(=O)(=O)c3ccccc3)CC2)cc1` [Compound 44, 2-(4-(4-Methylphenylsulfonyl)piperazin-1-yl)-3-(phenylsulfonyl)quinoxaline] showed an IC50 (PC3) of 2190 nM, an IC50 (A549) of 24300 nM and an IC50 (HCT116) of 7490 nM. The IC50 (HL60) was 6400 nM, the IC50 (KB) was 3080 nM and the IC50 (recombinant human PI3Kα) was > 10000 nM. It also gave a melting point of 161 to 163 °C.

Compound `CC(=O)N1CCN(c2nc3ccccc3nc2S(=O)(=O)c2ccccc2)CC1` [Compound 9, 2-(4-Acetylpiperazin-1-yl)-3-(phenylsulfonyl)quinoxaline] has an IC50 (PC3) of 2250 nM, an IC50 (A549) of 1020 nM and an IC50 (HCT116) of 1840 nM. The IC50 (HL60) was 2430 nM, the IC50 (KB) was 4420 nM and the “Binding efficiency index (BEI)” value (recombinant human PI3Kα) was 15.1. The IC50 (recombinant human PI3Kα) was 1090 nM and the melting point was 144 to 146 °C.

`CN1CCN(c2nc3ccccc3nc2S(=O)(=O)c2ccc(Br)cc2)CC1` [Compound 17, 2-(4-Methylpiperazin-1-yl)-3-(4-bromophenylsulfonyl)quinoxaline] gave an IC50 (PC3) of 1010 nM, an IC50 (A549) of 5180 nM and an IC50 (HCT116) of 2310 nM. For the same compound, the IC50 (HL60) was 280 nM, the IC50 (KB) was 870 nM and the “Binding efficiency index (BEI)” value (recombinant human PI3Kα) was 12.0. It also gave an IC50 (recombinant human PI3Kα) of 4250 nM and a melting point of 141 to 142 °C.
